Values joined by “and” are separate entries in the source; they are usually repeats but may differ in a detail not shown here. Identical values can stand only once. Like-named read-outs stand apart in the source and are kept apart here.
What was measured:
Type in all cases: cell-based
[1] = system: Porphyromonas gingivalis (ATCC 33277); experiment: MIC of Hyg A against P. gingivalis (OD600, dark field microscopy)
[2] = system: Streptococcus salivarius ATCC13419; experiment: MIC of Hyg A against S. salivarius
[3] = system: Streptococcus salivarius ATCC13419; experiment: MBC of Hyg A against S. salivarius
[4] = system: Treponema pallidum pallidum Chicago strain; experiment: Treated treponemes seeded onto no-antibiotic plate, 7 more days, T47 qPCR (treponemicidal activity); conditions: for Mean T47 copies/μL, Avg. / Mean T47 copies/μL, Expt. values: seeded on no antibiotic plate; for Mean T47 copies/μL, Avg.: average; for Mean T47 copies/μL, Expt. values: replicate wells
[5] = system: Treponema denticola; experiment: MBC of Hyg A against Treponema denticola strains; conditions: for MBC: Treponema denticola
[6] = system: Treponema pallidum pallidum SS14 strain; experiment: T. pallidum susceptibility assay, co-culture with Sf1Ep cells, tp0574 (T47) qPCR after 7 days; conditions: 7 days; for Mean T47 copies/μL, Average: average of 8 replicates
[7] = pre-treated with Hygromycin A 0.03 μg/ml
[8] = pre-treated with Hygromycin A 0.06 μg/ml
[9] = pre-treated with Hygromycin A 0.12 μg/ml
[10] = pre-treated with Hygromycin A 0.24 μg/ml
[11] = pre-treated with Hygromycin A 0.48 μg/ml
[12] = pre-treated with Hygromycin A 0.96 μg/ml
[13] = pre-treated with Hygromycin A 1.92 μg/ml
[14] = pre-treated with Hygromycin A 3.84 μg/ml

Compound CC(=O)[C@H]1O[C@@H](Oc2ccc(/C=C(\C)C(=O)N[C@@H]3[C@H](O)[C@@H](O)[C@H]4OCO[C@H]4[C@@H]3O)cc2O)[C@@H](O)[C@@H]1O [Hyg A, Hygromycin A] has an MIC ([1]; ATCC33277, P. gingivalis 33277, experiment 1, read-out: MIC (μg/ml) 1) of 5 µg/mL, an MIC ([1]; ATCC33277, P. gingivalis 33277, experiment 2, read-out: MIC (μg/ml) 2) of 5 µg/mL and an MIC ([2]; Streptococcus salivarius ATCC13419, read-out: MIC) of 10 µg/mL. The MIC ([2]; Streptococcus salivarius, ATCC13419, 96 h, S. salivarius, 5% CO2, extended incubation (4 days), read-out: MIC) was 20 µg/mL, the MIC ([2]; Streptococcus salivarius, ATCC13419, S. salivarius 13419, experiment 1, read-out: MIC (μg/ml) 1) was 10 µg/mL and the MIC ([2]; Streptococcus salivarius, ATCC13419, S. salivarius 13419, experiment 2, read-out: MIC (μg/ml) 2) was 10 µg/mL. For the same compound, the MIC ([2]; Streptococcus salivarius, ATCC13419, S. salivarius, 5% CO2, 24 hours incubation, read-out: MIC) was 10 µg/mL, the “MIC:MBC ratio” value ([3]; S. salivarius 13419) was 10 and the MBC ([3]; Streptococcus salivarius ATCC13419, read-out: MBC) was 10 µg/mL. For the same compound, the MBC ([3]; Streptococcus salivarius, ATCC13419, S. salivarius 13419, experiment 1, read-out: MBC (μg/ml) 1) was 10 µg/mL, the MBC ([3]; Streptococcus salivarius, ATCC13419, S. salivarius 13419, experiment 2, read-out: MBC (μg/ml) 2) was 10 µg/mL and the “concentration with treponemicidal activity” value ([4]; Chicago strain seeded onto no-antibiotic control plate) was at least 0.12 µg/mL. For the same compound, the “Mean T47 copies/μL, Avg.” value [4, 7] was 14552 copies/μL, the “Mean T47 copies/μL, Expt. values” [4, 7] was 10276 copies/μL and 18338 copies/μL and 20335 copies/μL and 9952 copies/μL and the “Mean T47 copies/μL, Avg.” value [4, 8] was 1000 copies/μL. For the same compound, the “Mean T47 copies/μL, Expt. values” [4, 8] was 744 copies/μL and 560 copies/μL and 2087 copies/μL and 892 copies/μL, the “Mean T47 copies/μL, Avg.” value [4, 9] was 28 copies/μL and the “Mean T47 copies/μL, Expt. values” [4, 9] was 13 copies/μL and 19 copies/μL and 39 copies/μL and 22 copies/μL. For the same compound, the “Mean T47 copies/μL, Avg.” value [4, 10] was 32 copies/μL, the “Mean T47 copies/μL, Expt. values” [4, 10] was 17 copies/μL and 41 copies/μL and 22 copies/μL and 52 copies/μL and the “Mean T47 copies/μL, Avg.” value [4, 11] was 26 copies/μL. For the same compound, the “Mean T47 copies/μL, Expt. values” [4, 11] was 0 copies/μL and 32 copies/μL (2×) and 23 copies/μL and 22 copies/μL, the “Mean T47 copies/μL, Avg.” value [4, 12] was 24 copies/μL and the “Mean T47 copies/μL, Expt. values” [4, 12] was 14 copies/μL and 23 copies/μL and 31 copies/μL and 27 copies/μL and 7 copies/μL. The “Mean T47 copies/μL, Avg.” value [4, 13] was 23 copies/μL, the “Mean T47 copies/μL, Expt. values” [4, 13] was 28 copies/μL and 8 copies/μL and 23 copies/μL and 36 copies/μL and 34 copies/μL and the “Mean T47 copies/μL, Avg.” value [4, 14] was 27 copies/μL. For the same compound, the “Mean T47 copies/μL, Expt. values” [4, 14] was 37 copies/μL and 24 copies/μL and 27 copies/μL and 41 copies/μL and 13 copies/μL, the “MIC:MBC ratio” value ([5]; T. denticola 33520) was 0.2-1.0 and the “MIC:MBC ratio” value ([5]; T. denticola 33521) was 0.3-1.0. For the same compound, the “MIC:MBC ratio” value ([5]; T. denticola 35404) was 0.1-1.0, the “MIC:MBC ratio” value ([5]; T. denticola 35405) was 0.2-0.4 and the “MIC:MBC ratio” value ([5]; T. denticola ASLM) was 0.5-1.0. The “MIC:MBC ratio” value ([5]; T. denticola H1-T) was 1.0, the “MIC:MBC ratio” value ([5]; T. denticola OTK) was 0.5-1.0 and the “MIC:MBC ratio” value ([5]; T. denticola SP44) was 0.5-2.0. For the same compound, the “MIC:MBC ratio” value ([5]; T. denticola US Trep) was 0.5, the “type of effect (bactericidal/bacteriostatic)” value ([5]; T. denticola strains, from MBC/MIC ratio) was “bactericidal” and the MBC ([5]; ATCC35404, ATCC 35404, strain most tolerant, read-out: MBC) was 5 µg/mL. The MBC ([5]; T. denticola 33520, experiment 1, read-out: MBC (μg/ml) 1) was 5 µg/mL, the MBC ([5]; T. denticola 33520, experiment 2, read-out: MBC (μg/ml) 2) was 1 µg/mL and the MBC ([5]; T. denticola 33521, experiment 1, read-out: MBC (μg/ml) 1) was 0.5 µg/mL. It also gave an MBC ([5]; T. denticola 33521, experiment 2, read-out: MBC (μg/ml) 2) of 2 µg/mL, an MBC ([5]; T. denticola 35404, experiment 1, read-out: MBC (μg/ml) 1) of 5 µg/mL and an MBC ([5]; T. denticola 35404, experiment 2, read-out: MBC (μg/ml) 2) of over 5 µg/mL. For the same compound, the MBC ([5]; T. denticola 35405, experiment 1, read-out: MBC (μg/ml) 1) was 1 µg/mL, the MBC ([5]; T. denticola 35405, experiment 2, read-out: MBC (μg/ml) 2) was 0.5 µg/mL and the MBC ([5]; T. denticola ASLM, experiment 1, read-out: MBC (μg/ml) 1) was 1 µg/mL. For the same compound, the MBC ([5]; T. denticola ASLM, experiment 2, read-out: MBC (μg/ml) 2) was 1 µg/mL, the MBC ([5]; T. denticola H1-T, experiment 1, read-out: MBC (μg/ml) 1) was 0.5 µg/mL and the MBC ([5]; T. denticola H1-T, experiment 2, read-out: MBC (μg/ml) 2) was 0.5 µg/mL. The MBC ([5]; T. denticola OTK, experiment 1, read-out: MBC (μg/ml) 1) was 1 µg/mL, the MBC ([5]; T. denticola OTK, experiment 2, read-out: MBC (μg/ml) 2) was 1 µg/mL and the MBC ([5]; T. denticola SP44, experiment 1, read-out: MBC (μg/ml) 1) was 5 µg/mL. For the same compound, the MBC ([5]; T. denticola SP44, experiment 2, read-out: MBC (μg/ml) 2) was 2 µg/mL, the MBC ([5]; T. denticola US Trep, experiment 1, read-out: MBC (μg/ml) 1) was 1 µg/mL and the MBC ([5]; T. denticola US Trep, experiment 2, read-out: MBC (μg/ml) 2) was 1 µg/mL. For the same compound, the “ratio of MBC/MIC” value ([5]; average for all T. denticola strains) was 2.3, the “Mean T47 copies/μL, Average” value ([6]; Hyg A 0.03 μg/ml) was 2768 copies/μL and the “Mean T47 copies/μL, Average” value ([6]; Hyg A 0.06 μg/ml) was 916 copies/μL. The “Mean T47 copies/μL, experimental values” ([6]; Hyg A 0.06 μg/ml, replicate wells) was 713 copies/μL and 883 copies/μL and 851 copies/μL and 1260 copies/μL and the “Mean T47 copies/μL, Average” value ([6]; Hyg A 0.12 μg/ml) was 737 copies/μL.

From patent publication US20240350522A1, “HYGROMYCIN A FOR TREATMENT OF DISEASES AND INFECTIONS” (FLIGHTPATH BIOSCIENCES, INC., priority 2021, published 2024)
